These are literature values, as cited in patent publication US5916587A, “Transdermal delivery matrix for piroxicam” (Sunkyong Industries Co., Ltd., priority 1992, dated 1999).

For data set [1] the following is noted: orally administered.
In data set [2] the test system is prostaglandin biosynthesis.
The conditions of data set [3]: oral use.

Take `CN1C(C(=O)Nc2ccccn2)=C(O)c2ccccc2S1(=O)=O` [Piroxicam, piroxicam]: in data set [1], the “drug excreted in the urine unchanged” value is given as “Less than 5%” and the metabolism entry is listed as “metabolized at the first pass route”. For the same compound, the “potency as an inhibitor of prostaglandin biosynthesis in vitro” value in data set [2] (compared with indomethacin) was “about equal in potency to indomethacin”. The side effects entry in data set [3] is “gastro-intestinal trouble, peptic ulcer”.
For `Nc1nc2cccc(-c3ccc(CN4CCS(=O)(=O)CC4)cc3)n2n1` [metabolite], the “fold less active than piroxicam inhibiting prostaglandin synthesis” value in data set [2] (metabolite vs piroxicam) was “at least 1000 times”.
